# Measured values: ChEMBL document CHEMBL3352299, “Antiproliferative 4-(1,2,4-oxadiazol-5-yl)piperidine-1-carboxamides, a new tubulin inhibitor chemotype” (Bioorg Med Chem Lett, 2014)
# What was measured:
# [1] = system: K562; assay: Induction of mitotic arrest in human K562 cells assessed as mitotic indices at 5 uM by light microscopy; assay type: functional
# [2] = system: K562; assay: Induction of mitotic arrest in human K562 cells assessed as growth inhibition by light microscopy; assay type: functional, cell-based
# [3] = system: DU-145; assay: (§1) Antiproliferative activity against human DU145 cells after 3 days by fluorescence assay; assay type: functional; conditions: DU-145, 72 h
# [4] = target: Tubulin; assay: Displacement of [3H]-colchicine from tubulin (unknown origin) after 10 mins by turbidimetrically; assay type: protein-complex assay, Homo sapiens
# [5] = system: 786-0; assay: Antiproliferative activity against human 786-0 cells after 3 days by fluorescence assay; assay type: functional; conditions: 786-0, 72 h
# [6] = system: HOP-62; assay: Antiproliferative activity against human HOP62 cells after 3 days by fluorescence assay; assay type: functional; conditions: HOP-62, 72 h
# [7] = system: MDA-MB-468; assay: Antiproliferative activity against human MDA-MB-468 cells after 3 days by fluorescence assay; assay type: functional; conditions: MDA-MB-468, 72 h
# [8] = system: SF-268; assay: Antiproliferative activity against human SF268 cells after 3 days by fluorescence assay; assay type: functional; conditions: SF-268, 72 h
# [9] = system: NCI-H322M; assay: Antiproliferative activity against human NCI-H322M cells after 3 days by fluorescence assay; assay type: functional; conditions: 72 h
# [10] = system: K562; assay: Antiproliferative activity against human K562 cells after 3 days by fluorescence assay; assay type: functional; conditions: K562, 72 h
# [11] = system: DU-145; assay: as §1; assay type: functional; conditions: DU-145, 72 h; remark: listed apart in the source
# [12] = system: MDA-MB-231; assay: Antiproliferative activity against human MDA-MB-231 cells after 3 days by fluorescence assay; assay type: functional; conditions: MDA-MB-231, 72 h
# [13] = system: SNB-19; assay: Antiproliferative activity against human SNB19 cells after 3 days by fluorescence assay; assay type: functional; conditions: SNB-19, 72 h
# [14] = Antiproliferative activity against human HOP92 cells after 3 days by fluorescence assay; assay type: functional; conditions: HOP-92, 72 h
# [15] = system: IGROV-1; assay: Antiproliferative activity against human IGROV1 cells after 3 days by fluorescence assay; assay type: functional; conditions: IGROV-1, 72 h
# [16] = Antiproliferative activity against human PC3 cells after 3 days by fluorescence assay; assay type: functional; conditions: PC-3, 72 h
# [17] = Antiproliferative activity against human OVCAR3 cells after 3 days by fluorescence assay; assay type: functional; conditions: OVCAR-3, 72 h
# [18] = Antiproliferative activity against human OVCAR5 cells after 3 days by fluorescence assay; assay type: functional; conditions: OVCAR-5, 72 h
# [19] = Antiproliferative activity against human EKVX cells after 3 days by fluorescence assay; assay type: functional; conditions: 72 h
# [20] = Antiproliferative activity against human HCC2998 cells after 3 days by fluorescence assay; assay type: functional; conditions: HCC 2998, 72 h
# [21] = Antiproliferative activity against human LOXIMVI cells after 3 days by fluorescence assay; assay type: functional; conditions: LOX IMVI, 72 h
# [22] = system: SNB-75; assay: Antiproliferative activity against human SNB75 cells after 3 days by fluorescence assay; assay type: functional; conditions: SNB-75, 72 h
# [23] = system: M14; assay: Antiproliferative activity against human M14 cells after 3 days by fluorescence assay; assay type: functional; conditions: M14, 72 h
# [24] = system: SK-MEL-2; assay: Antiproliferative activity against human SK-MEL-2 cells after 3 days by fluorescence assay; assay type: functional; conditions: SK-MEL-2, 72 h
# [25] = system: SN12C; assay: Antiproliferative activity against human SN12C cells after 3 days by fluorescence assay; assay type: functional; conditions: 72 h
# [26] = system: NCI-H23; assay: Antiproliferative activity against human NCI-H23 cells after 3 days by fluorescence assay; assay type: functional; conditions: NCI-H23, 72 h
# [27] = Antiproliferative activity against human Hs 578T cells after 3 days by fluorescence assay; assay type: functional; conditions: 72 h
# [28] = Antiproliferative activity against human SKOV3 cells after 3 days by fluorescence assay; assay type: functional; conditions: SK-OV-3, 72 h
# [29] = system: SK-MEL-28; assay: Antiproliferative activity against human SK-MEL-28 cells after 3 days by fluorescence assay; assay type: functional; conditions: SK-MEL-28, 72 h
# [30] = system: MDA-MB-435; assay: Antiproliferative activity against human MDA-MB-435 cells after 3 days by fluorescence assay; assay type: functional; conditions: MDA-MB-435, 72 h
# [31] = system: Malme-3M; assay: Antiproliferative activity against human MALME-3M cells after 3 days by fluorescence assay; assay type: functional; conditions: 72 h
# [32] = Antiproliferative activity against human UACC257 cells after 3 days by fluorescence assay; assay type: functional; conditions: UACC-257, 72 h
# [33] = system: U-251; assay: Antiproliferative activity against human U251 cells after 3 days by fluorescence assay; assay type: functional; conditions: U-251, 72 h
# [34] = Antiproliferative activity against human COLO205 cells after 3 days by fluorescence assay; assay type: functional; conditions: COLO 205, 72 h
# [35] = system: CAKI-1; assay: Antiproliferative activity against human CAKI-1 cells after 3 days by fluorescence assay; assay type: functional; conditions: CAKI-1, 72 h
# [36] = Antiproliferative activity against human SF295 cells after 3 days by fluorescence assay; assay type: functional; conditions: SF-295, 72 h
# [37] = system: HT-29; assay: Antiproliferative activity against human HT-29 cells after 3 days by fluorescence assay; assay type: functional; conditions: HT-29, 72 h
# [38] = Antiproliferative activity against human OVCAR8 cells after 3 days by fluorescence assay; assay type: functional; conditions: OVCAR-8, 72 h
# [39] = Antiproliferative activity against human UACC62 cells after 3 days by fluorescence assay; assay type: functional; conditions: UACC-62, 72 h
# [40] = system: ACHN; assay: Antiproliferative activity against human ACHN cells after 3 days by fluorescence assay; assay type: functional; conditions: 72 h
# [41] = system: HL-60(TB); assay: Antiproliferative activity against human HL-60(TB) cells after 3 days by fluorescence assay; assay type: functional; conditions: HL-60, 72 h
# [42] = system: NCI-H522; assay: Antiproliferative activity against human NCI-H522 cells after 3 days by fluorescence assay; assay type: functional; conditions: NCI-H522, 72 h
# [43] = system: NCI-H460; assay: Antiproliferative activity against human NCI-H460 cells after 3 days by fluorescence assay; assay type: functional; conditions: NCI-H460, 72 h
# [44] = system: SK-MEL-5; assay: Antiproliferative activity against human SK-MEL-5 cells after 3 days by fluorescence assay; assay type: functional; conditions: SK-MEL-5, 72 h
# [45] = system: SR; assay: Antiproliferative activity against human SR cells after 3 days by fluorescence assay; assay type: functional; conditions: 72 h
# [46] = Antiproliferative activity against human HCT116 cells after 3 days by fluorescence assay; assay type: functional; conditions: HCT-116, 72 h
# [47] = system: KM12; assay: Antiproliferative activity against human KM12 cells after 3 days by fluorescence assay; assay type: functional; conditions: KM12, 72 h
# [48] = system: A549; assay: Antiproliferative activity against human A549 cells after 3 days by fluorescence assay; assay type: functional; conditions: A549, 72 h
# [49] = Antiproliferative activity against human BT549 cells after 3 days by fluorescence assay; assay type: functional; conditions: BT-549, 72 h
# [50] = Antiproliferative activity against human UO31 cells after 3 days by fluorescence assay; assay type: functional; conditions: UO-31, 72 h
# [51] = system: CCRF-CEM; assay: Antiproliferative activity against human CCRF-CEM cells after 3 days by fluorescence assay; assay type: functional; conditions: 72 h
# [52] = Antiproliferative activity against human MOLT4 cells after 3 days by fluorescence assay; assay type: functional; conditions: MOLT-4, 72 h
# [53] = system: SW-620; assay: Antiproliferative activity against human SW620 cells after 3 days by fluorescence assay; assay type: functional; conditions: SW-620, 72 h
# [54] = system: MCF7; assay: Antiproliferative activity against human MCF7 cells after 3 days by fluorescence assay; assay type: functional; conditions: MCF7, 72 h
# [55] = Antiproliferative activity against human OVCAR4 cells after 3 days by fluorescence assay; assay type: functional; conditions: OVCAR-4, 72 h
# [56] = system: A498; assay: Antiproliferative activity against human A498 cells after 3 days by fluorescence assay; assay type: functional; conditions: A498, 72 h
# [57] = system: NCI-H226; assay: Antiproliferative activity against human NCI-H226 cells after 3 days by fluorescence assay; assay type: functional; conditions: NCI-H226, 72 h
# [58] = Antiproliferative activity against human NCI-ADR-RES cells after 3 days by fluorescence assay; assay type: functional; conditions: 72 h
# [59] = system: TK-10; assay: Antiproliferative activity against human TK10 cells after 3 days by fluorescence assay; assay type: functional; conditions: TK-10, 72 h
# [60] = Antiproliferative activity against human SF539 cells after 3 days by fluorescence assay; assay type: functional; conditions: SF-539, 72 h
# [61] = Antiproliferative activity against human HCT15 cells after 3 days by fluorescence assay; assay type: functional; conditions: HCT-15, 72 h
# [62] = Antiproliferative activity against human RPMI8226 cells after 3 days by fluorescence assay; assay type: functional; conditions: RPMI-8226, 72 h
# [63] = system: T47D; assay: Antiproliferative activity against human T47D cells after 3 days by fluorescence assay; assay type: functional; conditions: 72 h
# [64] = Antiproliferative activity against human RXF393 cells after 3 days by fluorescence assay; assay type: functional; conditions: RXF 393, 72 h
# [65] = system: DU-145; assay: Antiproliferative activity against human DU145 cells at 50 uM after 3 days by fluorescence assay; assay type: functional; conditions: DU-145, 72 h, read-out: GI
smiles,measurement,setting,value
O=C(NCc1ccccc1)N1CCC(c2nc(-c3ccc(F)cc3)no2)CC1,Activity,[1],72%
same,IC50,[2],1.2 µM
same,GI50,[3],2.8 µM
same,IC50,[4],1.6 µM
Cc1ccc(-c2noc(C3CCN(C(=O)NCc4ccco4)CC3)n2)cc1,GI50,[3],2.2 µM
same,IC50,[4],2.3 µM
COc1cccc(-c2noc(Nc3ccc(C)cc3)n2)c1OC,GI50,[5],4.79 µM
same,GI50,[6],2.29 µM
same,GI50,[7],1.1 µM
same,GI50,[8],4.79 µM
same,GI50,[9],5.13 µM
same,GI50,[10],0.245 µM
same,GI50,[11],3.16 µM
same,GI50,[12],10.7 µM
same,GI50,[13],3.8 µM
same,GI50,[14],3.89 µM
same,GI50,[15],4.79 µM
same,GI50,[16],3.8 µM
same,GI50,[17],1.15 µM
same,GI50,[18],11.2 µM
same,GI50,[19],5.5 µM
same,GI50,[20],3.63 µM
same,GI50,[21],3.09 µM
same,GI50,[22],1.91 µM
same,GI50,[23],1.35 µM
same,GI50,[24],2.29 µM
same,GI50,[25],6.03 µM
same,GI50,[26],1.74 µM
same,GI50,[27],3.47 µM
same,GI50,[28],2.88 µM
same,GI50,[29],2.34 µM
same,GI50,[30],0.219 µM
same,GI50,[31],1.74 µM
same,GI50,[32],2.82 µM
same,GI50,[33],3.72 µM
same,GI50,[34],2.57 µM
same,GI50,[35],3.16 µM
same,GI50,[36],1.1 µM
same,GI50,[37],0.525 µM
same,GI50,[38],3.98 µM
same,GI50,[39],2.88 µM
same,GI50,[40],7.08 µM
same,GI50,[41],0.676 µM
same,GI50,[42],0.891 µM
same,GI50,[43],2.09 µM
same,GI50,[44],3.09 µM
same,GI50,[45],0.234 µM
same,GI50,[46],1.15 µM
same,GI50,[47],1 µM
same,GI50,[48],3.16 µM
same,GI50,[49],6.17 µM
same,GI50,[50],5.37 µM
same,GI50,[51],2.34 µM
same,GI50,[52],4.68 µM
same,GI50,[53],0.603 µM
same,GI50,[54],1.58 µM
same,GI50,[55],6.31 µM
same,GI50,[56],2.4 µM
same,GI50,[57],7.76 µM
same,GI50,[58],0.562 µM
same,GI50,[59],4.47 µM
same,GI50,[60],1.2 µM
same,GI50,[61],1.78 µM
same,GI50,[62],2.95 µM
same,GI50,[63],3.63 µM
same,GI50,[64],1.32 µM
O=C(NCc1ccccc1)N1CCC(c2nc(-c3ccccc3Cl)no2)CC1,GI50,[3],9.3 µM
same,IC50,[4],2.6 µM
Cc1ccc(-c2noc(C3CCN(C(=O)NCc4ccccc4)CC3)n2)cc1,Activity,[1],83%
same,IC50,[2],0.55 µM
same,GI50,[3],1.6 µM
same,IC50,[4],1.1 µM
COc1cccc(NC(=O)N2CCC(c3nc(-c4ccc(Cl)cc4)no3)CC2)c1,GI50,[3],9.5 µM
same,IC50,[4],5.3 µM
O=C(NCc1ccccc1)N1CCC(c2nc(-c3ccccc3)no2)CC1,Activity,[1],75%
same,IC50,[2],1.5 µM
same,GI50,[3],1.9 µM
same,IC50,[4],1.8 µM
O=C(NCc1ccco1)N1CCC(c2nc(-c3ccc(Cl)cc3)no2)CC1,GI50,[3],2.7 µM
same,IC50,[4],2 µM
O=C(NCc1ccsc1)N1CCCC1c1nc(Cc2ccccc2)no1 (configuration not stated),inhibition of growth at 50 µM,[65],< 20%
CCCCNC(=O)N1CCC(c2nc(-c3ccc(F)cc3)no2)CC1,inhibition of growth at 50 µM,[65],< 20%
